Values of other authors, collected in PMC11243490, “Enzymatic Fructosylation of Phenolic Compounds: A New Alternative for the Development of Antidiabetic Drugs” (Molecules, 2024).
≈ marks a conversion by molar mass, not a printed value.

What was measured:
[1] = reported properties
[2] = design: method as in PMID 30638505, PMID 33992405, doi:10.1016/j.imu.2022.100880; settings: reported properties
[3] = test system: key proteins in type 2 diabetes; design: method as in PMID 32258479; settings: strongest interactions
[4] = design: method as in PMID 30638505, PMID 33992405, doi:10.1016/j.imu.2022.100880; settings: reported properties; remark: listed apart in the source
[5] = design: method as in PMID 30638505, PMID 33992405, doi:10.1016/j.imu.2022.100880; settings: reported properties; remark: listed apart in the source
CYP1A2 = test system: CYP1A2; design: method as in PMID 27518169; settings: human liver microsomes
CYP2C9 = test system: CYP2C9; design: method as in PMID 27518169; settings: human liver microsomes
[6] = test system: EGFR, SRC, ESR1, and HSP90AA1 diabetic proteins; design: method as in PMID 37754241; settings: range over EGFR

| SMILES | DPPH % Free Radical Scavenging Activity [1] | Solubility [2] | also measured |
| --- | --- | --- | --- |
| O=c1c(-c2ccc(O)cc2)coc2c([C@@H]3O[C@H](CO)[C@@H](O)[C@H](O)[C@H]3O)c(O)ccc12 [PU, daidzein-8-C-glucoside] | 33.3% | 700 ± 90 µg/mL (≈ 1.68 mM) | – |
| OC[C@H]1O[C@@H](Oc2cc3c(O)cc(O)cc3[o+]c2-c2ccc(O)c(O)c2)[C@H](O)[C@@H](O)[C@@H]1O [cyanidin 3-glucoside] | – | – | free binding energies [3]: −7.3 to −6.10 |
| COc1cc(/C=C/C(=O)OC2(CO)OCC(O)C(O)C2O)ccc1O [MFF, β-D-Fructopyranosyl-β-(2→6)-ferulate] | 17.16 ± 0.81% | 8690 ± 450 µg/mL (≈ 24.4 mM) | NO % Free Radical Scavenging Activity [4]: 3.27 ± 1.02%; ABTS % Free Radical Scavenging Activity [5]: 90.95 ± 0.18% |
| O=c1c(-c2ccc(O)cc2)coc2c(C3OC(COC4(CO)OC(CO)C(O)C4O)C(O)C(O)C3O)c(O)ccc12 [MFP, β-D-fructofuranosyl-β-(2→6)-puerarin] | 26.2 ± 1.3% | 16200 ± 1700 µg/mL (≈ 28 mM) | – |
| OC[C@H]1O[C@@H](Oc2cc3c(O)cc(O)cc3[o+]c2-c2cc(O)c(O)c(O)c2)[C@H](O)[C@@H](O)[C@@H]1O [delphinidin 3-glucoside] | – | – | free binding energies [3]: −7.3 to −6.10 |
| O=C(CCc1ccc(O)cc1)c1c(O)cc(O)cc1OC1OC(COC2(CO)OC(CO)C(O)C2O)C(O)C(O)C1O [MFPh, β-D-fructofuranosyl-β-(2→6)-phlorizin] | 44.56 ± 8.4% | 30570 ± 100 µg/mL (≈ 51.1 mM) | – |
| COc1cc(C=CC(=O)O)ccc1O [FA, 4-hydroxy-3-methoxycinnamic acid] | 70.04 ± 2.3% | – | NO % Free Radical Scavenging Activity [4]: 22.21 ± 1.39%; ABTS % Free Radical Scavenging Activity [5]: 90.69 ± 0.14% |
| O=C(CCc1ccc(O)cc1)c1c(O)cc(O)cc1O[C@@H]1O[C@H](CO)[C@@H](O)[C@H](O)[C@H]1O [PH, phloretin-2′-β-D-glucopyranoside] | 62.13 ± 1.8% | 1930 ± 30 µg/mL (≈ 4.42 mM) | – |
| O=C(O[C@@H]1Cc2c(O)cc(O)cc2O[C@@H]1c1cc(O)c(O)c(O)c1)c1cc(O)c(O)c(O)c1 [EGCG, epigallocatechin gallate] | – | – | inhibition of CYP1A2 (CYP1A2): 8.93 µM; inhibition of CYP2C9 (CYP2C9): 7.60 µM |
| CCCCCc1cc(O)c2c(c1)OC(C)(C)c1ccc(C)cc1-2 [cannabinol] | – | – | free binding energy [6]: -7.44 to -6.38 kcal/mol |
